Data reported in patent US20220040255A1, “CHEMOTHERAPEUTIC REMODELING OF THE GUT MICROBIOME” (THE SCRIPPS RESEARCH INSTITUTE, priority 2018, published 2022).
Where a SMILES comes first, the peptide text is derived from it. [ ]: non-standard residue; d: D form.

Experiments:
[1] = tested on: mouse liver and ileum gene expression; experiment: host gene expression (mouse RNA-seq, qPCR); format: in vivo, mice; conditions: peptide-treated WD animals
Description: Mouse RNA-seq sample preparation and sequencing. Mouse tissues were harvested after 2 weeks of treatment, stored in RNAlater, and snap-frozen. 20-30 mg of mouse tissue was used for RNA extraction with RNeasy Mini Kit (Qiagen) following the manufacturer's instructions. Ribosomal RNA was removed from total RNA with Ribo-Zero Gold rRNA removal kit (Illumina). Strand-specific RNA-seq libraries were constructed as described previously (Hainer et al., Genes Dev. 29, 362-378, 2015). Libraries with different barcodes were pooled and single-end sequencing (75 bp) was performed on an Illumina NextSeq at the Scripps Research Institute next generation sequencing core.
Mouse RNA sequencing data analysis. After ribosomal RNA sequences were removed, the RNA transcripts were quantified using RSEM. […] Enrichment of Gene Ontology terms and categories was performed with DAVID 6.8.
Quantitative real-time PCR. To validate selected gene expression results, qPCR reactions were carried out. Mouse livers were harvested two weeks after peptide treatment and total RNA was extracted using RNeasy Mini (Qiagen) following manufacturer's instructions. […]

[2] = tested on: cytokines/chemokines in liver tissue; experiment: cytokines/chemokines in liver tissue by Luminex assay; format: in vivo, LDLr−/− mice
Description: Interleukin-1β (IL-1β) is a proinflammatory cytokine central to the inflammatory response […] the interlukin-6 (IL-6) signaling pathway. […] In addition to IL-1β, a pathogenic role of IL-la in vascular inflammation and atherosclerosis has been described.

[3] = tested on: intestinal absorption of cholesterol; experiment: fecal dual-isotope cholesterol absorption assay; format: in vivo, LDLr−/− mice; conditions: 180 μM in drinking water, 2-wk treatment, WD
Description: In vivo cholesterol absorption assay. This experiment was carried out courtesy of Carol S. Ryan, Debra J. Search, Ricardo A. Garcia, and David A. Gordon at Bristol Myers Squibb (Hopewell, N.J., USA). To assess the effects of c[wLwReQeR] (SEQ ID NO:11) on intestinal absorption of cholesterol, male LDLr^−/− mice (Jackson Laboratories) ranging from 8-10 weeks old were acclimated to single housing in standard solid bottom bedded cages for at least one week at BMS facilities. During the acclimation period, the mice were fed a chow diet ad libitum. At the start of the treatment period and for the duration of the study, mice were switched to high-fat, high-cholesterol Western diet (Research Diets D12108C) containing 1.25% cholesterol and 20% fat ad libitum. The peptide was administered in the drinking water ad libitum as a solution with 1% sucrose at 180 μM (˜35 mg/kg/day). […]
Following a 2-wk treatment period, cholesterol absorption was measured using a dual fecal isotope ratio method. […] Plasma (˜20 μl) was added to 5 ml of Opti-fluor Scintillation cocktail (Packard Bioscience #6013199) and counted on ^3H and ^14C channels to evaluate cholesterol efflux. Radioactivity in feces was analyzed as follows: for each animal, feces recovered over the 48 hours was dried overnight at 50° C. and 0.1 gram of dried feces was transferred to a glass tube. […]

[4] = liver tissue, WD-fed LDLr−/− mice, 4 weeks of treatment

`CC(C)C[C@@H]1NC(=O)[C@@H](Cc2c[nH]c3ccccc23)NC(=O)[C@H](CCCNC(=N)N)NC(=O)[C@@H](CCC(=O)O)NC(=O)[C@H](CCC(N)=O)NC(=O)[C@@H](CCC(=O)O)NC(=O)[C@H](CCCNC(=N)N)NC(=O)[C@@H](Cc2c[nH]c3ccccc23)NC1=O` [c[wLwReQeR]] (cyclo([dW]L[dW]R[dE]Q[dE]R)) was tested. Which “expression of cholesterol 7 alpha-hydroxylase (Cyp7a1)” value [1] did it give?
Its value is “significantly increased”.

What about the “several cytokine and chemokine levels, including IL-1β, IL-1α, IL-6, and TNF-α” value ([2]; liver tissue from WD animals, treated vs vehicle) of the same compound?
The value was “significant reductions”.

What about the “CCL2 (MCP-1) level” value [2, 4] of the same compound?
Its value is 470 ± 150 pg/g tissue.

What about the “CCL3 (MIP-1a) level” value [2, 4] of the same compound?
Its value is 200 ± 130 pg/g tissue.

And the “CCL4 (MIP-1b) level” value [2, 4]?
Its value is 3000 ± 1800 pg/g tissue.

What about the “CXCL10 (IP-10) level” value [2, 4] of the same compound?
The value was 1200 ± 380 pg/g tissue.

What about the Eotaxin level [2, 4] of the same compound?
Its Eotaxin level is 1200 ± 390 pg/g tissue.

And the G-CSF level [2, 4]?
Its G-CSF level is 380 ± 150 pg/g tissue.

What about the GM-CSF level [2, 4] of the same compound?
Its GM-CSF level is 86 ± 37 pg/g tissue.

What about the IFNg level [2, 4] of the same compound?
Its IFNg level is 37 ± 16 pg/g tissue.

What about the IL1a level [2, 4] of the same compound?
Its IL1a level is 1100 ± 190 pg/g tissue.

What about the IL1b level [2, 4] of the same compound?
The IL1b level was 430 ± 100 pg/g tissue.

What about the IL2 level [2, 4] of the same compound?
The IL2 level was 80 ± 24 pg/g tissue.

What about the IL3 level [2, 4] of the same compound?
The IL3 level was 31 ± 15 pg/g tissue.

And the IL4 level [2, 4]?
The IL4 level was 13 ± 8.4 pg/g tissue.

And the IL6 level [2, 4]?
The IL6 level was 260 ± 55 pg/g tissue.

And the IL7 level [2, 4]?
Its IL7 level is 230 ± 110 pg/g tissue.

What about the IL9 level [2, 4] of the same compound?
Its IL9 level is 670 ± 160 pg/g tissue.

What about the IL10 level [2, 4] of the same compound?
Its IL10 level is 160 ± 58 pg/g tissue.

And the IL13 level [2, 4]?
The IL13 level was 7.3 ± 5.9 pg/g tissue.

What about the IL-12p40 level [2, 4] of the same compound?
Its IL-12p40 level is 200 ± 78 pg/g tissue.

And the IL-12p70 level [2, 4]?
The IL-12p70 level was 270 ± 140 pg/g tissue.

What about the IL-15 level [2, 4] of the same compound?
Its IL-15 level is 960 ± 370 pg/g tissue.

What about the IL-17 level [2, 4] of the same compound?
The IL-17 level was 55 ± 16 pg/g tissue.

And the KC level [2, 4]?
The KC level was 190 ± 20 pg/g tissue.

What about the LIF level [2, 4] of the same compound?
Its LIF level is 7.1 ± 4 pg/g tissue.

And the LIX level [2, 4]?
Its LIX level is 290 ± 240 pg/g tissue.

What about the M-CSF level [2, 4] of the same compound?
Its M-CSF level is 200 ± 70 pg/g tissue.

What about the MIG level [2, 4] of the same compound?
The MIG level was 1200 ± 650 pg/g tissue.

And the RANTES level [2, 4]?
Its RANTES level is 71 ± 61 pg/g tissue.

What about the TNFa level [2, 4] of the same compound?
Its TNFa level is 77 ± 21 pg/g tissue.

And the VEGF level [2, 4]?
The VEGF level was 8.2 ± 3.4 pg/g tissue.

What about the “absorption of dietary cholesterol” value [3] of the same compound?
Its value is “did not reduce”.
